Measurements taken from patent publication US20260224732A1, “BIOPOLYMER PROTECTED OLIGONUCLEOTIDES FOR DRUG DELIVERY” (THE ROYAL INSTITUTION FOR THE ADVANCEMENT OF LEARNING / …, priority 2023, published 2026).

What was measured:
Epithelial cells = test: Cellular viability with CA and CA-R mixes; type: cell-based
Excerpt: Magnification of 10×, scale bar=100 μm, dapi in blue and factin in red.
Cellular viability. To be applicable in biological context, the toxicity of the CA and the combined CA-R mixes were verified. Epithelial cells were cultivated in media supplemented with various CA-R mixes and acidified at pH 6. Both the cellular viability and morphology was studied over a 5 day period.

[1] = cited from earlier work

For `O=c1[nH]c(=O)[nH]c(=O)[nH]1` [CA, cyanuric acid], the toxicity in vitro (Epithelial cells) is listed as “low toxicity”, the viability (Epithelial cells; after 5 days, pH 6, CA 20 mM alone or CA 20 mM plus the named CA-R (CAC2NH2 30 mM, CAC6NH2 12 mM)) is listed as 91±2% and the pKa [1] is listed as 6.9.
